In series [1] the test system is Human umbilical vein endothelial cells (HUVECs). Nature of the series: Serum stimulated HUVEC cell proliferation (Sulphorhodamine B). Format: cell-based. The conditions noted are these: for selectivity for serum-stimulated endothelial cell proliferation: HUVEC compared to A90 and C6 tumor cell proliferation. The method, then:
(§1) Human umbilical vein endothelial cells (HUVECs) (Clonetics, Palo Alto, Calif.) were seeded at 2000 cells per well in growth medium containing 2% serum (EGM, Clonetics) and allowed to attach overnight (37° C., 5% CO2, 100% humidity). C6 rat glioma cells (ATCC) were seeded at 600 cells per well and incubated in F10 medium (GIBCO, Gaithersburg, Md.) supplemented with 15% horse serum, 2.5% fetal bovine serum, and 1 mM glutamine. A90 human ovarian cells (Dr. Kent Crickard, SUNY/AB Medical School) were seeded at 600 cells per well in RPMI1640 (GIBCO) plus 10% fetal bovine serum. Plates were incubated overnight (37° C., 5% CO2, 100% humidity) to allow the cells to attach. Test compound dilutions were added to the appropriate wells, and the incubation was continued for 4 additional days. Monolayers were fixed in 10% trichloroacetic acid (30 minutes at 4° C.), washed with distilled water, and stained with Sulphorhodamine B (0.075% in 1% acetic acid) (Sigma). Plates were washed in 1% acetic acid, and the bound dye was solubilized in 100 μL unbuffered Tris base. Absorbance was measured at 540 nm using a reference filter wavelength of 630 nm. Inhibitor potency (IC50) versus cellular proliferation was determined, and endothelial cell selectivity was assessed by comparing the inhibition of HUVEC proliferation to A90 and C6 tumor cell proliferation (Table 3).

Another series addresses T1, FGFR-1 (Homo sapiens, UniProt P11362).
T1 construct: The kinase domains from FGFR-1, VEGFR-2, Lck, and PDGF were purified from baculoviral vectors expression systems; made in house
Put plainly: Kinase inhibition assay (DELFIA), FGFr. Format: biochemical. The conditions noted are these: 40 μM ATP, kinase domain 20 nM. The method, then:
(§2) The inhibition activity of the compounds in Examples 8, 9, 10, 11, and 12 and Reference Compounds A and B were evaluated using the Dissociated Enhanced Lanthanide Fluoroimmuno Assay (DELFIA) (Frank Loganzo and Carolyn Hardy. A sensitive, time-resolved fluorometric assay for the detection of inhibitors of phosphotyrosine kinases. American Biotechnology Laboratory, December 1998). DELFIA plates (EG&G Wallac, Gaithersburg, Md.) were coated overnight with Poly Glu Tyr (4:1) (Sigma, St. Louis, Mo.) at room temperature, washed (DELFIA wash reagent, EG&G Wallac), and spotted with 1 μL inhibitor dilution or DMSO carrier control per well. In some cases, kinase was autophosphorylated prior to analysis by incubating 45 minutes at 4° C. in the presence of 4 mM ATP and 25 mM MgCl2. A typical 100 μL kinase assay reaction contained 20 mM Tris (pH 7.5), 20 mM MgCl2, 50 mM NaCl, 5 mM DTT, and protease inhibitors (Mini EDTA-free protease inhibitor cocktail tablets, Boehringer Mannheim, Indianapolis, Ind.), 40 μM ATP, and an appropriate concentration of inhibitor. The reaction was allowed to continue for 30 minutes at room temperature. Plates were washed, blocked 30 minutes at room temperature (0.5% bovine serum albumin in DELFIA Assay Buffer, EG&G Wallac), and washed. One hundred microliter europium-conjugated antiphosphotyrosine antibody in DELFIA assay buffer was added to each well. Plates were incubated for 1 hour and decanted. One hundred microliter DELFIA enhancement solution (EG&G Wallac) was added and time-resolved fluorescence of the reactions determined using a VICTOR2 1420 multilable counter (EG&G Wallac). Compounds were tested from 10 through 0.0001 μM. c-Src was (Upstate Biotechnology, Lake Placid, N.Y.) was used at 3 units per reaction. The kinase domains from FGFR-1, VEGFR-2, Lck, and PDGF were purified from baculoviral vectors expression systems and were used in the assays at 20 nM.

The target of another series is T2, VEGFR-2 (Homo sapiens, UniProt P35968).
T2 construct: The kinase domains from FGFR-1, VEGFR-2, Lck, and PDGF were purified from baculoviral vectors expression systems; made in house
T2 sequence (P35968 834-1162 limits assumed, species assumed): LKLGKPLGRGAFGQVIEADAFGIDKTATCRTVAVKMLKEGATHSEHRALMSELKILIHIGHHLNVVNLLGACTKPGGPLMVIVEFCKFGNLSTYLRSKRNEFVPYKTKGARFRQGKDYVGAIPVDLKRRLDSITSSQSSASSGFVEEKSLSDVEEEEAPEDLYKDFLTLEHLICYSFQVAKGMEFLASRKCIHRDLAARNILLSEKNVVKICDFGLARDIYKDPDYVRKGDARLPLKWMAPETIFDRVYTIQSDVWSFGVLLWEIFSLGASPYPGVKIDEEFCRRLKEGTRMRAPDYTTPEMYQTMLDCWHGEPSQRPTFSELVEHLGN
Put plainly: Kinase inhibition assay (DELFIA), VEGF-2. Format: biochemical. The following applies: 40 μM ATP, kinase domain 20 nM. Here is the method:
as §2, with “DELFIA” for “The inhibition activity of the compounds in Examples 8, 9, 10, 11, and 12 and Reference Compounds A and B were evaluated using the Dissociated Enhanced Lanthanide Fluoroimmuno Assay (DELFIA) (Frank Loganzo and Carolyn Hardy. A sensitive, time-resolved fluorometric assay for the detection of inhibitors of phosphotyrosine kinases. American Biotechnology Laboratory, December 1998). DELFIA”, “One hundred microliter DELFIA enhancement solution (EG&G Wallac) was added and time-resolved fluorescence of the reactions determined using a VICTOR2 1420 multilable counter (EG&G Wallac).” left out

The target in a further series is T3, Lck (Homo sapiens, UniProt P06239).
T3 construct: The kinase domains from FGFR-1, VEGFR-2, Lck, and PDGF were purified from baculoviral vectors expression systems; made in house
T3 sequence (P06239 245-498 limits assumed, species assumed): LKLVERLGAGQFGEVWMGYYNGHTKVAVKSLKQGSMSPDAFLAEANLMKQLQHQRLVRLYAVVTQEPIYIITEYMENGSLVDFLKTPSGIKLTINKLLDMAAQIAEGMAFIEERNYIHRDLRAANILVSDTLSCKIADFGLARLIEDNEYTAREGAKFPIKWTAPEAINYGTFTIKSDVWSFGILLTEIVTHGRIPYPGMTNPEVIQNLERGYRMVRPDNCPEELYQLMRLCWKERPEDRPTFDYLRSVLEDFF
Put plainly: Kinase inhibition assay (DELFIA), Lck. The conditions noted are these: 40 μM ATP, kinase domain 20 nM. Format: biochemical. The method, then: as §2

In a further series the target is T4, c-Src (Homo sapiens, UniProt P12931).
T4 construct: purchased Upstate Biotechnology, Lake Placid, N.Y
T4 sequence (P12931 whole entry): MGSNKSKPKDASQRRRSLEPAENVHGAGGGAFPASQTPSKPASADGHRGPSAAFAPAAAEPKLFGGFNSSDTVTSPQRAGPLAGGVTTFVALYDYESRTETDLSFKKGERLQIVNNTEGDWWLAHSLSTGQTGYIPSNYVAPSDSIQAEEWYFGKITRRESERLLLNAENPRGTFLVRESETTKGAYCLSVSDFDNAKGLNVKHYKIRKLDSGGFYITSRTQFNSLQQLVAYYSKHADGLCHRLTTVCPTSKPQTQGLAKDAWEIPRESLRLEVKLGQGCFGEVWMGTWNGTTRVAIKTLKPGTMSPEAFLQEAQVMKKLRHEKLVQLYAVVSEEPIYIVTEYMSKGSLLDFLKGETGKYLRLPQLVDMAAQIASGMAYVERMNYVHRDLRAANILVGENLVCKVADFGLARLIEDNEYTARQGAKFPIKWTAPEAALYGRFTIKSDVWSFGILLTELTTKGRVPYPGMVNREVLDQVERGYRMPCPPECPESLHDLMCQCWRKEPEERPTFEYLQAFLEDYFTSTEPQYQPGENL
Nature of the series: Kinase inhibition assay (DELFIA), c-Src. The following applies: 40 μM ATP, c-Src 3 units per reaction. Format: biochemical. Here is the method: as §2

The next series has as its system A90 human ovarian cells. Nature of the series: A90 tumor cell proliferation (Sulphorhodamine B). Format: cell-based. The conditions noted are these: Homo sapiens, 96 h; 4 days with compound. Here is the method:
as §1

In another series the test system is C6 rat glioma cells. Put plainly: C6 tumor cell proliferation (Sulphorhodamine B). Format: cell-based. The conditions noted are these: Rattus norvegicus, Glioma cell, 96 h; 4 days with compound. Here is the method:
as §1

Series [2] in a line: Metabolic stability, mice liver S9 fraction. Format: in vitro ADME. The conditions noted are these: mouse, liver S9 fraction; mice liver S9, 5 μM, 37° C., 1.0 mM NADPH; read-out: MS9 in vitro metabolic half-life. The method, then: (§3) Compounds were individually incubated (5 μM in DMSO) with human and mice liver S9 fractions in 50 mM KHPO4 buffer at 37° C. in the presence of 1.0 mM NADPH and additional cofactors. At 0, 10, 20, and 40 minutes, 100 μL aliquots were removed and added to 300 μL of acetonitrile. Standard curves were prepared in a similar manner with each compound. Samples were analyzed for parent concentration by LC-MS/MS. The in vitro metabolic half-life was determined from the concentration-time plots using WinNonlin. These in vitro data represent the rate of oxidative, hydrolytic, and conjugative metabolism.

A further series in a line: in vitro. The conditions noted are these: human, Caco-2.
The nature of series [3]: Metabolic stability, human liver S9 fraction. Format: in vitro ADME. The conditions noted are these: liver S9 fraction; human liver S9, 5 μM, 37° C., 1.0 mM NADPH; read-out: HS9 in vitro metabolic half-life. The method, then:
as §3

Series [4] can be described thus: Caco-2 cell transport (permeability) study. The following applies: human.
Experimental: (§4) Cell transport studies were conducted with Caco-2 cells grown on Snapwells™ between 22 and 28 days postseeding. Typically, 10 mM MES buffer (pH 6.5) with 5 mM KCl, 135 mM NaCl, and 1.8 mM CaCl2 was used for the apical side and 10 mM MOPS (pH 7.4) with 5 M KCl, 132 mM NaCl, and 1.8 mM CaCl2 with 5 mM D-glucose was used for the basolateral side. On the day of the experiment, the growth media was aspirated, and the cell monolayers were pre-equilibrated with appropriate buffers at 37° C., and TEER measurements were performed to confirm the integrity of the monolayers. Transepithelial flux measurements were made by mounting the cell monolayers in a side-by-side diffusion chamber system (Precision Instrument Design, Tahoe City, Calif.). Temperature was maintained at 37° C. with a circulating water jacket. The solutions were mixed with gas-lift circulation with 95% oxygen/5% carbon dioxide. […] Donor and receiver samples were collected at selected time intervals for up to 3 hours. […] Test compounds were analyzed using LC-MS/MS methods. Apparent permeability coefficients were calculated using the following equation: Papp=(V·dC/dt)/(A·C0) where V=volume of the receiver solution in mL; A=surface area of the monolayer in cm^2; C0=initial donor concentration in mM; and dC/dt=change of the drug concentration in the receiver chamber over time.

The structures appear in SMILES notation. Where only a bound is given, the exact number is not on record here.

T1 sequence (P11362 478-767 limits assumed, species assumed): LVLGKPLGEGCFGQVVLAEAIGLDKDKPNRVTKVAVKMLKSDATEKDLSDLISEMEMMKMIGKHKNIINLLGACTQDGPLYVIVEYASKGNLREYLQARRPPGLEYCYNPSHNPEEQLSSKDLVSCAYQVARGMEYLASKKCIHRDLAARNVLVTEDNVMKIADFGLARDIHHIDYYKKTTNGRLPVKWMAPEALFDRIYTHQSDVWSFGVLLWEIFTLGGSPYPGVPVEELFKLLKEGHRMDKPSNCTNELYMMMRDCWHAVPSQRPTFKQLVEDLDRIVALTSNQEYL
Experimental for in vitro: as §4

On to `CCn1c(=O)c(-c2cc(OC)cc(OC)c2)cc2cnc(Nc3ccnc(C)c3)nc21` [Example 9, 6-(3,5-Dimethoxy-phenyl)-8-ethyl-2-(2-methyl-pyridin-4-ylamino)-8H-pyrido[2,3-d]pyrimidin-7-one], for which the melting point was above 300 °C. In series [1], the “selectivity for serum-stimulated endothelial cell proliferation” value (shortened to “selectivity”) was “selective inhibitors”.
For the compound `CCn1c(=O)c(-c2cc(OC)cc(OC)c2)cc2cnc(Nc3cc(C)nc(C)c3)nc21` [Example 10, 6-(3,5-Dimethoxy-phenyl)-2-(2,6-dimethyl-pyridin-4-ylamino)-8-ethyl-8H-pyrido[2,3-d]pyrimidin-7-one], the IC50 was 0.0008 µM at FGFR-1, 0.001 µM on VEGFR-2 and above 4 µM against c-Src. For the same compound, the Ki on Lck stood at 0.74 µM. The “selectivity” value in series [1] is reported as “selective inhibitors”.
For `CCn1c(=O)c(-c2cc(OC)cc(OC)c2)cc2cnc(Nc3ccnc(Cl)c3)nc21` [Example 11, 6-(3,5-Dimethoxy-phenyl)-2-(2-chloro-pyridin-4-ylamino)-8-ethyl-8H-pyrido[2,3-d]pyrimidin-7-one], the IC50 at FGFR-1 was 0.0002 µM; against VEGFR-2 it was 0.003 µM; at c-Src it was above 4 µM; in the series on A90 human ovarian cells, 25 µM; with C6 rat glioma cells, 9.68 µM; in [1] (Homo sapiens, HUVEC, 96 h, 2% serum growth medium, 4 days with compound) it was 0.013 µM. This compound came in with a Ki at Lck of 2.77 µM. Moreover, in series [1], the “selectivity” value is listed as “selective inhibitors”.
Turning to `CCn1c(=O)c(-c2cc(OC)cc(OC)c2)cc2cnc(Nc3cc(OC)nc(OC)c3)nc21` [Example 12, 6-(3,5-Dimethoxy-phenyl)-2-(2,6-dimethoxy-pyridin-4-ylamino)-8-ethyl-8H-pyrido[2,3-d]pyrimidin-7-one], the “selectivity” value in series [1] is reported as “selective inhibitors”.
With `CCn1c(=O)c(-c2c(Cl)c(OC)cc(OC)c2Cl)cc2cnc(Nc3ccncc3)nc21` [Example 15, 6-(2,6-Dichloro-3,5-dimethoxy-phenyl)-2-(pyridin-4-ylamino)-8-ethyl-8H-pyrido[2,3-d]pyrimidin-7-one], the melting point lay in the range of 295.5 to 297 °C.
The compound `COc1cc(OC)cc(-c2cc3cnc(Nc4ccncc4)nc3n(C3CCCC3)c2=O)c1` [Example 16, 6-(3,5-Dimethoxy-phenyl)-2-(pyridin-4-ylamino)-8-cyclopentyl-8H-pyrido[2,3-d]pyrimidin-7-one] had a melting point of 283 to 285 °C.
As to `COc1cc(OC)cc(-c2cc3cnc(Nc4ccncc4)nc3n(C)c2=O)c1` [Example 17, 6-(3,5-Dimethoxy-phenyl)-2-(pyridin-4-ylamino)-8-methyl-8H-pyrido[2,3-d]pyrimidin-7-one], the melting point fell in the range of 245 to 247 °C.
On to `CCN(CC)CCOc1ccc(Nc2ncc3cc(-c4c(Cl)cccc4Cl)c(=O)n(C)c3n2)cc1` [Reference A], for which the figures for the half-life at 5 μM in series [2] and in series [3] were 14 min and 46 min, respectively. The same compound gave a Papp A→B in “in vitro” of 37.2 ×10⁻⁶ cm/s.
For `CCN(CC)CCOc1ccc(Nc2ncc3cc(-c4cc(OC)cc(OC)c4)c(=O)n(C)c3n2)cc1` [Reference B, reference compound], the IC50 came out at 0.002 µM at FGFR-1, 0.004 µM against VEGFR-2 and 1.34 µM against c-Src. Also, affinity on Lck was put at a Ki of 0.06 µM. The values for the half-life at 5 μM in [2] and in [3] were 10 min and 22 min, respectively. The compound also gave an apical-to-basolateral permeability (Papp A→B) in series [4] of 20.1 ×10⁻⁶ cm/s.
Compound `COCCc1ccc(OCC(O)CNC(C)C)cc1` (stereo not drawn) [metoprolol] registered a Papp A→B in series [4] of around 30 ×10⁻⁶ cm/s.

The term melting point denotes the temperature of the solid-liquid transition. In general, IC50 refers to the point on the concentration scale where inhibition reaches its midpoint. As a reminder, the Ki is a dissociation constant, usually derived from enzyme kinetics or from competition with a known ligand. Higher therefore signals a looser hold on the target. One may read the half-life as the time in which the quantity being followed falls by half. Broadly, the Papp A→B is how fast a substance crosses the layer from the apical side. Higher therefore signals fast passage.

Values taken from patent publication US7022711B2, “2-(4-Pyridyl)amino-6-dialkoxyphenyl-pyrido[2,3-d]pyrimidin-7-ones” (Warner-Lambert Company, priority 2000, dated 2006).
